Experimental data as given in US20250000859A1, “USE OF GCN2 INHIBITORS IN TREATING CANCER” (Alesta Therapeutics BV, priority 2021, published 2025).
pIC50: −log10 of the molar value. Where two headings read alike, the source gives them in different places.

What was measured:
[1] = tested on: Renca, CT26, MC38, B16F10 tumor cells; experiment: In vivo tumor models, tumor volume (Example J); design: species or system BALB/c or C57BL/6 mice; settings: for inhibition in tumor volume compared to control: Compound 1: 30 mg/kg p.o. BID, Compound 2: 20 mg/kg p.o. BID, endpoint day 11-20 depending on model
Method: Effect of GCN2 inhibition on in vivo xenograft tumor models of various ASS1 low cancer models was evaluated following treatment with compound 1, compound 2, or vehicle control. Briefly, 1,000,000 tumor cells with a total volume of 100 μl were injected into the rear flank region of 6-8 week old BALB/c or C57BL/6 female mice. The following tumor cell lines were tested: renica (renal adenocarcinoma), CT26 (colon cancer), MC 38 (colon adenocarcinoma), B16F10 (melanoma) When tumors reached a size of approximately […], mice were treated orally (PBS, 10 μl/g, i.p., twice weekly (BIW); Compound 1: 30 mg/kg, 10 μl/g, p.o., twice daily (BID); or Compound 2: 20 mg/kg, 10 μl/g, p.o., BID). Tumor volumes were measured every 3-4 days. Endpoint measurements as presented were measured at day 20 (Renca), day 14 (CT26), day 17 (MC38), and day 11 (B16F10).

HCT116 spheroids = experiment: Tumor spheroid growth, live-cell imaging (Example C); format: cell-based; settings: ASS1-high HCT116 spheroids, 0-20 μM, up to 120 hours
Method: (§1) The growth of tumor spheroids was evaluated following treatment of cells with Compound 1, Compound 2. Briefly, HT29 or HCT116 cells were seeded at 5,000 cells/well in ultra-low attachment round-bottom 96-well plates, in 100 μL SILAC DMEM Flex media without phenol red, supplemented with 10% fetal bovine serum (FBS), 1 g/L glucose, 2 mM glutamine, 220 μM lysine, and 64 μM arginine. The plates were centrifuged for 10 minutes at 125×g and put in a humidified incubator at 37° C. for 3 days before the onset of the experiment to allow spheroids to form.
(§2) Three days after seeding, 0-20 μM Compound 1, 0-20 μM Compound 2, or […] vehicle control (0.1% DMSO), were added together with the Nuclear-ID Red DNA Stain (1:100,000; ENZO Life Sciences) to detect live cells. Plates were placed in live-cell imaging and analysis platform (e.g., IncuCyte ZOOM®; 15 Essenbio) set up in a humidified incubator at 37° C. and scanned every 4 hours for up to 120 hours, at 10× magnification, to determine the relative spheroid size and cell death. Experiments were performed in quadruplicate and analyzed using live-cell imaging and analysis software (e.g., IncuCyte ZOOM® 2018A software; Essenbio).

HT29 spheroids = experiment: as above; format: cell-based; settings: ASS1-low HT29 spheroids, 0-20 μM, up to 120 hours
Method: as §1, §2

A498 (ASS1low) cells = experiment: Relative cell viability, Nuclear-ID Red / Annexin V staining (Example E); format: cell-based; settings: 16 μM arginine, 4 days
Method: (§3) To assess the effectiveness of Compound 1 and Compound 2: A^498 (ASS1low) and 769-P (ASS1high) cells were seeded at a density of 2000 cells/well in 96-well plates in RPMI medium with 16 μM arginine, 1 g/L glucose, 2 mM L-glutamine, and 10% FCS and allowed to adhere overnight.
(§4) Cells were then treated with increasing amounts of the indicated compounds for 4 days. Afterward, cell viability was determined by staining the nuclei of the living cells with NUCLEAR-IDR Red DNA stain (Enzo Life Sciences) and the apoptotic/death cells with Annexin V CF488A (Biotium) and scanning the plates with an IncuCyte S3 instrument. Viable cells were classified as Nuclear-ID Red high and Annexin V CF488A low and relative viability was expressed as a percentage of the total number of cells/well.

769-P (ASS1high) cells = experiment: as above; format: cell-based; settings: 16 μM arginine, 4 days
Method: as §3, §4

HT29 cells [2] = experiment: EdU incorporation (Example I); format: cell-based; settings: HT29 cells (low ASS1), arginine 6.25-100 μM
Method: (§5) EdU incorporation levels of cancer cell lines was evaluated following treatment with compound 1, compound 2, compound 3, or vehicle control (0.1% DMSO). Briefly, HT29 and HCT116 cells were seeded at 2,500 cells/well in 96 well plates in 100 μl SILAC DMEM flex media without phenol red, supplemented with 10% dialyzed fetal bovine serum (dFBS), 1 g/l glucose, 2 mM glutamine, 220 μM Lysine, and various concentrations of arginine (6.25 μM, 12.5 μM, 25 μM, and 100 μM). The cells were put in a humidified incubator at 37° C. for 24 hours. The next day compounds were added to the cells at a concentration of […]. At day 3, cells were incubated with 10 μM EdU for 24 hours. The next day EdU positive cells were labeled using the Click-it reaction cocktail per manufacturing protocol using Amplex UltraRed Dye. Fluorescence was measured using a microplate reader using filter sets appropriate for Amplex™ UntraRed reagent (ex 568 nm and em 585 nm).

HCT116 cells [3] = experiment: EdU incorporation (Example I); format: cell-based; settings: HCT116 cells (high ASS1), arginine 6.25-100 μM
Method: as §5

A498 cells = experiment: Cell viability, ATPlite luminescence (Example H); format: cell-based; settings: A498 cells (low ASS1)
Method: The viability of cancer cell lines was evaluated following treatment with compound 2. Briefly, 769P and A498 cells were seeded at 100-6,400 cells/well in 96 well plates in 100 μl SILAC DMEM flex media without phenol red, supplemented with 10% dialyzed fetal bovine serum (dFBS), 1 g/l glucose, 2 mM glutamine, 220 μM Lysine, and 64 μM arginine. The cells were put in a humidified incubator at 37° C. for 24 hours. The next day compounds were added at various concentrations. At the end of the experiment, ATPlite 1 Step™ (Perkin Elmer) solution was added to each well and shaken for 2 minutes. After incubation of 10 min in the dark, luminescence was recorded on a Envision Multimode Reader to determine cell viability.

HT29 cells [4] = experiment: Growth of colonies/spheroids in soft agar, 5 days (Example G); format: cell-based; settings: HT29 cells (ASS1 low), 64 μM arginine, read-out: IC50, growth inhibition
Method: (§6) The growth of tumor spheroids was evaluated following treatment with Compound 2. Briefly, HT29 cells were seeded at 2,000 cells/well and HCT116 cells were seeded at 1,000 cells/well in ultra-low attachment round bottom 96-well plates in soft agar with 100 μl SILAC DMEM flex media without phenol red, supplemented with 10% Dialyzed fetal bovine serum (dFBS), 1 g/l glucose, 2 mM glutamine, 220 μM Lysine, and 64 μM arginine. Various concentrations of compound 2 (1.37 nM, 4.11 nM, 12.3 nM, 37 nM, 111 nM, 333 nM, and 1000 nM) were added. Plates were placed in a humidified incubator at 37° C. and incubated for 5 days, allowing colonies to form. At endpoint, images were taken by light microscopy (3 images per well) and analyzed using ImageJ software.

HCT116 cells [5] = experiment: as above; format: cell-based; settings: Homo sapiens, HCT-116, 120 h, HCT116 cells (ASS1 high), 64 μM arginine, read-out: IC50, growth inhibition
Method: as §6

| Structure (SMILES) | reduction in tumor volume compared to control ([1]; 30 mg/kg p.o. BID, Renca, CT26, MC38, B16F10, FIG. 9A) | inhibition in tumor volume compared to control [1] | spheroid growth (HCT116 spheroids) | spheroid growth compared to DMSO-treated spheroids (HT29 spheroids) | relative cell viability (A498 (ASS1low) cells) | relative cell viability (769-P (ASS1high) cells) | EdU labeling (HT29 cells [2]) | EdU labeling (HCT116 cells [3]) | cell death (percent viability vs untreated cells) (A498 cells) | pIC50 (HT29 cells [4]) | pIC50 (HT29 cells [4]; Homo sapiens, HT-29, 120 h) | pIC50 (HCT116 cells [5]) |
| --- | --- | --- | --- | --- | --- | --- | --- | --- | --- | --- | --- | --- |
| COc1ncc(Cl)cc1S(=O)(=O)Nc1ccc(F)c(-c2ccc3nc(N)ncc3c2)c1F [Compound 1] | 60-70% | caused a significant inhibition in tumor volume compared to control | does not reduce spheroid growth | significantly reduces spheroid growth in a dose-dependent manner | significantly reduces relative cell viability in a dose-dependent manner | did not significantly relative cell viability | cause significantly higher levels of EdU labeling | have a smaller effect on EdU labeling |  |  |  |  |
| Nc1ncc2cc(-c3c(F)ccc(NS(=O)(=O)c4cc(Cl)ccc4Cl)c3F)ccc2n1 [Compound 2] |  | caused a significant inhibition in tumor volume compared to control | does not reduce spheroid growth | significantly reduces spheroid growth in a dose-dependent manner | significantly reduces relative cell viability in a dose-dependent manner | did not significantly relative cell viability | cause significantly higher levels of EdU labeling | have a smaller effect on EdU labeling | resulted in a significant level of cell death | 7.29 | 7.28 | 5.88 |
| Nc1ncc(C#Cc2c(F)ccc(NS(=O)(=O)c3cc(Cl)cc(CO)c3Cl)c2F)cn1 [Compound 3] |  |  |  |  |  |  | cause significantly higher levels of EdU labeling | have a smaller effect on EdU labeling |  |  |  |  |
